Experimental data from patent publication US10731164B2, “Aptamer conjugates with N-heterocyclic carbene metal complexes for targeted drug delivery” (University of Florida Research Foundation, Inc., priority 2014, dated 2020).

Assays:
CCRF-CEM cells = assay: Flow cytometry analysis, CCRF-CEM cells; type: cell-based; conditions: 250 nM, 2 h at 4° C.
Procedure: Flow Cytometry Analysis was conducted as follows. Cells were plated in a 35 mm cell culture dish (Corning Incorporated, Corning, N.Y., USA) and grown to around 80% confluency for 24 h before the experiments. Cells were washed twice with 1 mL PBS and then incubated with the prepared aptamer-drug conjugate and LIB-drug conjugate at the concentration of 250 nM for 2 h at 4° C. After incubation, cells were washed with washing buffer three times, dispersed in 80 μL binding buffer, and finally subjected to flow cytometry analysis using a FACScan cytometer (Becton Dickinson Immunocytometry Systems, San Jose, Calif., USA). Fluorescence was determined by counting 30,000 events, and data were analyzed with FlowJo software.
Flow cytometry assays of conjugate 30 (sgc8c-27) with the K562 cell line (left) and the CCRF-CEM cell line are shown in FIGS. 26A and 26B, respectively. Random aptamer sequences conjugated to 27 to create LIB-27 were used as negative control. […] In Similar manner, flow cytometry analysis of MDA-MB-231 cell, PC3 cell, HEK293 cell and HU1545 cell, FIGS. 27A-27D, respectively, after incubated with 32 (AS1411-29) were conducted. AS1411 aptamer was used as positive control, and random library sequences was used as negative control.

[1] = system: cis-platin resistant cancer cells; conditions: background; cited from earlier work
[2] = system: cervical carcinoma (HeLa) cells; conditions: background; cited from earlier work
CCRF-CEM cell line = assay: MTS cell viability assay, CCRF-CEM cell line; type: cell-based; conditions: 4 h incubation then 48 h
Procedure: All cell lines used in this research were cultured in American Type Culture Collection recommended medium, with 10% fetal bovine serum (Invitrogen, Carlsbad, Calif.) and 0.5 mg/mL penicillin-streptomycin (American Type Culture Collection) at 37° C. under a 5% CO2 atmosphere. CCRF-CEM (T-cell line) and K562 ([…]) were cultured in RPMI 1640 medium; MDA-MB-231 (breast cancer cells were cultured in L-15 medium; DU145 (prostate cancer cell) was cultured in EMEM medium; Hela (cervical cancer cell), HEK293 (human kidney cell) and HU1545v (human untransformed liver cell) were cultured in DMEM medium. Cells were washed before and after incubation with washing buffer [4.5 g/L glucose and 5 mM MgCl2 in Dulbecco's PBS with calcium chloride and magnesium chloride (Sigma-Aldrich)]. Binding buffer was prepared by adding yeast tRNA (0.1 mg/mL; Sigma-Aldrich) and BSA (1 mg/mL; Fisher Scientific) to the washing buffer to reduce background binding. All reagents for buffer preparation and HPLC purification came from Fisher Scientific. […]
A cell viability assay to measure the cytotoxicity of the aptamer-drug conjugate 21 and aptamer-ligand conjugate 28 were performed, as indicated in FIG. 13. […] The assay was allotted 2 h at 37° C. for development, and then the 490 nm absorbance of each well was collected on a Tecan plate 110 reader. […]

## sgc8c: leukemia-specific aptamer 5′-ATCTAACTGCTGCGCCGCCGGGAAAATACTGTACGGTTAGA-3′ (ATCTAACTGCTGCGCCGCCGGGAAAATACTGTACGGTTAGA; listed as DNA, chemistry not fully specified)
CCRF-CEM cells
  fluorescence intensity of cells (flow cytometry): fluorescence intensity increases

## CC(=O)OC[C@H]1O[C@@H]([S-])[C@H](OC(C)=O)[C@@H](OC(C)=O)[C@@H]1OC(C)=O.CCP(CC)CC.[Au+] [Auranofin]
[1]
  effect against cis-platin resistant cancer cells: effective
[2]
  activity against HeLa cells in vitro: highly active

## 1-(anthracen-9-ylmethyl)-3-(4-N-sgc8c-aptamer-carbamoylbenzyl) benzo[d]imidazolium gold(I) chloride [complex 27]
CCRF-CEM cell line
  IC50: 31.1 ± 2.11 µM
